Experimental data as given in patent publication US9265781B2, “Process for producing a particulate composition comprising anhydrous crystalline 2-O-alpha-D-glucosyl-L-ascorbic acid” (HAYASHIBARA CO., LTD., priority 2009, dated 2016).

Legend:
Format in all cases: physicochemical
[1] = Caking test (Experiment 1-4); design: key: “Caked”, (+): Sample clearly keeps the hemispherical shape of the bottom of the tube even when placed on the plate; “Slightly caked”, (±): Sample slightly but distinguishably shows the hemispherical shape of the bottom of the tube; “Not caked” (−): Sample does not keep the hemispherical shape of the bottom of the tube; details: 1 g in 14-ml polypropylene tube, 50° C., 24 hours, macroscopic observation
Procedure: The following experiment was performed to investigate the caking of respective Test samples 1 to 4: One gram aliquots of each of Test samples 1 to 4, prepared in Experiment 1-1, were separately filled into “FALCON TUBE 2059”, a product name of a 14-ml polypropylene cylindrical tube (1.7 cm in diameter, 10 cm in height) having a hemispherical bottom shape and a cap, commercialized by Becton, Dickinson and Company, New Jersey, USA. The tubes were uprightly set to a tube rack and allowed to stand for 24 hours, after the tube rack was placed in “IC-410”, a product name of an incubator commercialized Advantec Toyo Kaisha, Ltd., Tokyo, Japan, controlled at 50° C. After the incubation, the tubes were taken out from the incubator, followed by removing each cap, taking out each test sample from each tube to place it on a black-plastic-plane plate by turning the tubes upside down slowly, and macroscopically observing the conditions of the resulting test samples.

[2] = Solubility in hydrophilic solvent, 30% 1,3-butylene glycol (Experiment 6); details: same test as in Experiment 6
From the text: Any one of the above test samples and the particulate compositions of Examples 1 to 4 was weighed 0.25 g and placed in “FALCON TUBE 2059”, a product name of a 14-ml polypropylene cylindrical tube having a hemispherical bottom shape and a cap, commercialized by Becton, Dickinson and Company, New Jersey, USA. […]

[3] = Storage stability test (Experiment 3-2); design: key: “Caked” (+), clump(s) is/are detected in a test sample and the flowability of the test sample has lowered in comparison with that at the initiation of the test; “Not caked” (−), no clump is detected in a test sample and the flowability of the test sample has not been changed in comparison with that at the initiation of the test; details: 10 kg in open polyethylene-double-bag in uncapped steel can, 45 days; flowability and caked state
From the text: To confirm that the caking test conducted in Experiment 1-4, etc., is a proper test for evaluating the caking of a particulate composition containing anhydrous crystalline ascorbic acid 2-glucoside when actually stored, Test sample 1 obtained in Experiment 1-1, Test samples 10 to 15 obtained in Experiment 3-1, and Test sample 16 were subjected to a storage stability test which was designed by taking account of conditions, environment, and period of time for actual storage of a particulate composition containing anhydrous crystalline ascorbic acid 2-glucoside.
Ten kilogram aliquots of any of Test samples 1 and 10 to 16 were respectively weighed and placed in a polyethylene-double-bag (800 mm by 600 mm) for each test sample. Then, each bag was placed in a 18-liter steel can in such a manner of allowing the opening part of each bag to open and stand upright without closing the opening part, allowing the bags to stand without capping the steel cans, and storing for 45 days in a room away from a relatively high temperature and humidity. After 45 days storage, each polyethylene-double-bag enclosing any of the test samples was taken out from the cans, and the samples were taken out from the bags and placed on a black-plastic-plane-plate for macroscopic observation of their flowabilities and caked states.
The test samples were judged about their caking by the following criteria: “Caked” (+), clump(s) is/are detected in a test sample and the flowability of the test sample has lowered in comparison with that at the initiation of the test; and “Not caked” (−), no clump is detected in a test sample and the flowability of the test sample has not been changed in comparison with that at the initiation of the test. The storage form of each test sample in the storage stability test is the same as that of a quasi-drug-grade powder that is commercially distributed and stored, except for not closing the opening part of the bag with a rubber band, not putting in any desiccant, and being stored in a steel can without closing it with a lid. The above three differences were of those, which had been set as a storage environment for a storage test that was slightly harder than an actual storage environment, to expedite the test results. The results are in Table 3 in parallel.

Compound | Caking [1] | Solubility in 1,3-butylene glycol (judgement in words) [2] | Storage stability [3]
O=C1O[C@H]([C@@H](O)CO)C(O)=C1O[C@H]1O[C@H](CO)[C@@H](O)[C@H](O)[C@H]1O [Comparative Example 1, 2-O-α-D-glucosyl-L-ascorbic acid] | + | Passable solubility | 
O=C1O[C@H]([C@@H](O)CO)C(O)=C1O[C@H]1O[C@H](CO)[C@@H](O)[C@H](O)[C@H]1O [Comparative Example 2, 2-O-α-D-glucosyl-L-ascorbic acid] | + | Passable solubility | 
O=C1O[C@H]([C@@H](O)CO)C(O)=C1O[C@H]1O[C@H](CO)[C@@H](O)[C@H](O)[C@H]1O [Example 1, 2-O-α-D-glucosyl-L-ascorbic acid] | − |  | −
O=C1O[C@H]([C@@H](O)CO)C(O)=C1O[C@H]1O[C@H](CO)[C@@H](O)[C@H](O)[C@H]1O [Example 2, 2-O-α-D-glucosyl-L-ascorbic acid] | − |  | −
O=C1O[C@H]([C@@H](O)CO)C(O)=C1O[C@H]1O[C@H](CO)[C@@H](O)[C@H](O)[C@H]1O [Example 3, 2-O-α-D-glucosyl-L-ascorbic acid] | − |  | −
O=C1O[C@H]([C@@H](O)CO)C(O)=C1O[C@H]1O[C@H](CO)[C@@H](O)[C@H](O)[C@H]1O [Example 4, 2-O-α-D-glucosyl-L-ascorbic acid] | − |  | −
O=C1O[C@H]([C@@H](O)CO)C(O)=C1O[C@H]1O[C@H](CO)[C@@H](O)[C@H](O)[C@H]1O [Example 5, 2-O-α-D-glucosyl-L-ascorbic acid] | − | Passable solubility | 
O=C1O[C@H]([C@@H](O)CO)C(O)=C1O[C@H]1O[C@H](CO)[C@@H](O)[C@H](O)[C@H]1O [Example 6, 2-O-α-D-glucosyl-L-ascorbic acid] | − | Passable solubility | 
O=C1O[C@H]([C@@H](O)CO)C(O)=C1O[C@H]1O[C@H](CO)[C@@H](O)[C@H](O)[C@H]1O [Example 7, 2-O-α-D-glucosyl-L-ascorbic acid] | − | Passable solubility | 
O=C1O[C@H]([C@@H](O)CO)C(O)=C1O[C@H]1O[C@H](CO)[C@@H](O)[C@H](O)[C@H]1O [Example 8, 2-O-α-D-glucosyl-L-ascorbic acid] | − and ± | Passable solubility | 
O=C1O[C@H]([C@@H](O)CO)C(O)=C1O[C@H]1O[C@H](CO)[C@@H](O)[C@H](O)[C@H]1O [Example for Reference 1, 2-O-α-D-glucosyl-L-ascorbic acid] | − | Impassable solubility | −
O=C1O[C@H]([C@@H](O)CO)C(O)=C1O[C@H]1O[C@H](CO)[C@@H](O)[C@H](O)[C@H]1O [Test sample 1, 2-O-α-D-glucosyl-L-ascorbic acid] | − |  | −
O=C1O[C@H]([C@@H](O)CO)C(O)=C1O[C@H]1O[C@H](CO)[C@@H](O)[C@H](O)[C@H]1O [Test sample 2, 2-O-α-D-glucosyl-L-ascorbic acid] | + |  | 
O=C1O[C@H]([C@@H](O)CO)C(O)=C1O[C@H]1O[C@H](CO)[C@@H](O)[C@H](O)[C@H]1O [Test sample 3, 2-O-α-D-glucosyl-L-ascorbic acid] | + |  | 
O=C1O[C@H]([C@@H](O)CO)C(O)=C1O[C@H]1O[C@H](CO)[C@@H](O)[C@H](O)[C@H]1O [Test sample 4, 2-O-α-D-glucosyl-L-ascorbic acid] | − |  | 
O=C1O[C@H]([C@@H](O)CO)C(O)=C1O[C@H]1O[C@H](CO)[C@@H](O)[C@H](O)[C@H]1O [Test sample 5, 2-O-α-D-glucosyl-L-ascorbic acid] | − |  | 
O=C1O[C@H]([C@@H](O)CO)C(O)=C1O[C@H]1O[C@H](CO)[C@@H](O)[C@H](O)[C@H]1O [Test sample 6, 2-O-α-D-glucosyl-L-ascorbic acid] | − |  | 
O=C1O[C@H]([C@@H](O)CO)C(O)=C1O[C@H]1O[C@H](CO)[C@@H](O)[C@H](O)[C@H]1O [Test sample 7, 2-O-α-D-glucosyl-L-ascorbic acid] | − |  | 

Now from value to compound:

Caking [1] | Solubility in 1,3-butylene glycol (judgement in words) [2] | Storage stability [3] | Compound
± |  |  | O=C1O[C@H]([C@@H](O)CO)C(O)=C1O[C@H]1O[C@H](CO)[C@@H](O)[C@H](O)[C@H]1O [Test sample 8, 2-O-α-D-glucosyl-L-ascorbic acid]
+ |  |  | O=C1O[C@H]([C@@H](O)CO)C(O)=C1O[C@H]1O[C@H](CO)[C@@H](O)[C@H](O)[C@H]1O [Test sample 9, 2-O-α-D-glucosyl-L-ascorbic acid]
+ |  | + | O=C1O[C@H]([C@@H](O)CO)C(O)=C1O[C@H]1O[C@H](CO)[C@@H](O)[C@H](O)[C@H]1O [Test sample 10, 2-O-α-D-glucosyl-L-ascorbic acid]
± |  | + | O=C1O[C@H]([C@@H](O)CO)C(O)=C1O[C@H]1O[C@H](CO)[C@@H](O)[C@H](O)[C@H]1O [Test sample 11, 2-O-α-D-glucosyl-L-ascorbic acid]
− |  | − | O=C1O[C@H]([C@@H](O)CO)C(O)=C1O[C@H]1O[C@H](CO)[C@@H](O)[C@H](O)[C@H]1O [Test sample 19, 2-O-α-D-glucosyl-L-ascorbic acid]
+ |  | + | O=C1O[C@H]([C@@H](O)CO)C(O)=C1O[C@H]1O[C@H](CO)[C@@H](O)[C@H](O)[C@H]1O [Test sample 20, 2-O-α-D-glucosyl-L-ascorbic acid]
− |  | − | O=C1O[C@H]([C@@H](O)CO)C(O)=C1O[C@H]1O[C@H](CO)[C@@H](O)[C@H](O)[C@H]1O [Test sample 21, 2-O-α-D-glucosyl-L-ascorbic acid]
− |  | − | O=C1O[C@H]([C@@H](O)CO)C(O)=C1O[C@H]1O[C@H](CO)[C@@H](O)[C@H](O)[C@H]1O [Test sample 22, 2-O-α-D-glucosyl-L-ascorbic acid]
+ |  |  | O=C1O[C@H]([C@@H](O)CO)C(O)=C1O[C@H]1O[C@H](CO)[C@@H](O)[C@H](O)[C@H]1O [Test sample 28, 2-O-α-D-glucosyl-L-ascorbic acid]
